The text below walks through data of publication PMC12367838, “Relevance of kinetic interactions and co-formulants for plant protection product liver toxicity in vitro” (Archives of Toxicology, 2025).

Structures are written as SMILES. pIC50: −log10 of the molar value.

What all share (assay): P450-Glo screening system, CYP inhibition
Holding throughout (assay type): biochemical

One series has as its target T1, CYP1A2 (Homo sapiens, UniProt P05177).
T1 construct: purchased Promega
T1 sequence (P05177 1-516): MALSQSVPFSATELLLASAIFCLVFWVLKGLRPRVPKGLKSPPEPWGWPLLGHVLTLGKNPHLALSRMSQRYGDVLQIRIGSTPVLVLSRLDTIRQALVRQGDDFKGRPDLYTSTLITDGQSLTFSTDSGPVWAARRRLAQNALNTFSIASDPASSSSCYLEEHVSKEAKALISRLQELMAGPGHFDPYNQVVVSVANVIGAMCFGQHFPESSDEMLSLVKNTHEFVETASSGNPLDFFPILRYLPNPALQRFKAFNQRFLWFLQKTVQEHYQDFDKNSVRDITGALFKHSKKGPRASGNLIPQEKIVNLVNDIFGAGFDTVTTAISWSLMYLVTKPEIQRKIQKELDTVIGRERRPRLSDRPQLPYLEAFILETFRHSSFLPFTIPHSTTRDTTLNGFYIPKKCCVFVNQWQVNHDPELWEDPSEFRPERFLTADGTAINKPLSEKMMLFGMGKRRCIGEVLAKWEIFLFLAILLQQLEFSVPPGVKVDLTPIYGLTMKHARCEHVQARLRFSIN
To be noted: recombinant human CYP, luciferin-ME. An excerpt:
(§1) The P450-Glo™ screening systems (Promega; Madison, Wisconsin, USA) were used in this study to explore the inhibitory properties of MDP on the major CYP isoforms involved in xenobiotic metabolism (CYP1A2, CYP2C9, CYP2C19, CYP2D6, and CYP3A4). HepaRG cells were not utilized in this assay to avoid potential cross reactivity since all CYP enzymes are expressed in this cell line. Therefore, this inhibition study relied on recombinant human CYP enzymes integrated in membrane preparation. The principle of the assay is based on the conversion of a luminogenic substrate (100 µM luciferin-ME for CYP1A2, 100 µM luciferin-H for CYP2C9, 50 µM luciferin-H EGE for CYP2C19, 30 µM luciferin-ME EGE for CYP2D6, and 100 µM luciferin-PPXE for CYP3A4) to luciferin by the respective enzyme. The assay was conducted according to the instructions of the supplier. Briefly, eight non-cytotoxic concentrations of MDP or a CYP selective inhibitor were preincubated for 10 min at 37 °C together with the luminogenic substrate, potassium phosphate buffer, and luciferin-free water, and the test compounds were added to white 96-well Costar® plates. After the preincubation, 25 µL of NADPH regeneration system (2.6 mM NADP + , 6.6 mM glucose-6-phosphate, 6.6 mM MgCl2, and 0.8 U/mL glucose-6-phosphate dehydrogenase) was added to each well to initiate CYP reactions. The plates were briefly shaken and taped before they were incubated at 37 °C for 10–30 min depending on the CYP enzyme under investigation. Luminescence of the luciferin product was initiated by adding 50 µL of the luciferin detection reagent. Subsequently, the plates were briefly shaken and then incubated for 20 min at room temperature in order to stabilize the luminescent signal. The luminescence was measured on the Infinite M200 PRO plate reader (Tecan; Männedorf, Switzerland). The measurements were corrected by subtracting the minus P450 control signals from each measurement and represented as changes in luminescence signals (ΔRLU). The ΔRLU values of MDP were compared with the ΔRLU values of the untreated samples and represented as relative changes in luminescence in relation to the control (%). Three independent experiments with three technical replicates were conducted (n = 3). Means and standard deviations for each treatment were calculated before calculating the IC50 values of MDP for each CYP enzyme.
(§2) A linear mixed-effects ANOVA (α = 0.05) described by Pinheiro and Bates ([2000]) followed by a post-hoc Dunnett test for multiple comparisons of treatment groups versus the control was used for statistical analysis of data from cytotoxicity assay, AdipoRed assay, CYP450 inhibition assay as well as mixture effects. R studio (ver. 4.4.1) was used to determine the effective concentration at relative triglyceride induction fold of 1.5 for each test compound.

For the next series, the target named is T2, CYP2C19 (Homo sapiens, UniProt P33261).
T2 construct: purchased Promega
To be noted: recombinant human CYP, luciferin-H EGE.
Source text: as §1, §2

For another series, the target named is T3, CYP2C9 (Homo sapiens, UniProt P11712).
T3 construct: purchased Promega
The settings on record: recombinant human CYP, luciferin-H.
Source text: as §1, §2

The next series addresses T4, CYP2D6 (Homo sapiens, UniProt P10635).
T4 construct: purchased Promega
To be noted: recombinant human CYP, luciferin-ME EGE.
Source text: as §1, §2

The next series has as its target T5, CYP3A4 (Homo sapiens, UniProt P08684).
T5 construct: purchased Promega
To be noted: recombinant human CYP, luciferin-PPXE.
Source text: as §1, §2

T5 sequence (P08684 whole entry): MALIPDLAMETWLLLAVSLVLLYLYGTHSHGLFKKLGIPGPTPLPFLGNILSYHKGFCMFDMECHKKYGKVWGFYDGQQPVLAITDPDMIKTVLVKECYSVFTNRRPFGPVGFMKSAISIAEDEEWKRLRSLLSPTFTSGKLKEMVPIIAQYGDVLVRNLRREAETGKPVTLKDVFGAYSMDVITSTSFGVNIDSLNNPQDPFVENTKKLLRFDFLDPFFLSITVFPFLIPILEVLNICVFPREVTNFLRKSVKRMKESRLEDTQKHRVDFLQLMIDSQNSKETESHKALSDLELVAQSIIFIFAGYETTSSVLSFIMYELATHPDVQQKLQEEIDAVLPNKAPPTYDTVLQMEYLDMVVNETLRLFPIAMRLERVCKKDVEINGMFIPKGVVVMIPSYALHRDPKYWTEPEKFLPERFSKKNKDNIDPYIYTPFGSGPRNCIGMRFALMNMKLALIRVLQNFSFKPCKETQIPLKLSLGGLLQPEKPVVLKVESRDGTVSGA
T4 sequence (P10635 whole entry): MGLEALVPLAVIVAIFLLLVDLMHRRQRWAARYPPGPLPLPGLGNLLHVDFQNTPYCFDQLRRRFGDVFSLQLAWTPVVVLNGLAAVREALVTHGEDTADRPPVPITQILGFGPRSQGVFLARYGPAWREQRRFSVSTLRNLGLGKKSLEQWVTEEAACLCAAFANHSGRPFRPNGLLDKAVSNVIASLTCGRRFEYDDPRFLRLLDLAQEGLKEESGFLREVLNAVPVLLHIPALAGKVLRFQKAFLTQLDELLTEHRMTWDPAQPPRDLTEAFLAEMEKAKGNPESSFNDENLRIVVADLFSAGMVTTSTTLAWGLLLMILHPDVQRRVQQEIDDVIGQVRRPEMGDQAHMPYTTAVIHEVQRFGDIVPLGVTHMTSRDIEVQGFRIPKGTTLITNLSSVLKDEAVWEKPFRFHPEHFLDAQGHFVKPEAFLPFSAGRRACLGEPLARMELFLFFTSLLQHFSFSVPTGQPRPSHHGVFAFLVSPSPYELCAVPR
T2 sequence (P33261 whole entry): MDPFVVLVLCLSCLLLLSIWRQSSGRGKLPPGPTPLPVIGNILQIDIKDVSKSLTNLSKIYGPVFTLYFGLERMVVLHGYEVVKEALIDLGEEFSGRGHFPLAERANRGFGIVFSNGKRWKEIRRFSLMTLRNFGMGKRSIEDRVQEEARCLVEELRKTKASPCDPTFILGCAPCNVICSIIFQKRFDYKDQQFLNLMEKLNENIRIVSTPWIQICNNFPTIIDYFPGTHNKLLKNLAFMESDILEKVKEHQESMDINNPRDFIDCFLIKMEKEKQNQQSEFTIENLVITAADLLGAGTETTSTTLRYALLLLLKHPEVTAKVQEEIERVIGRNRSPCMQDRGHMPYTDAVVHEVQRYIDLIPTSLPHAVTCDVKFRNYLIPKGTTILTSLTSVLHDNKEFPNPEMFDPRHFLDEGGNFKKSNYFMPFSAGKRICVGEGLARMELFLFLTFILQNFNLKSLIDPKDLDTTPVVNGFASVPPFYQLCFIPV
T3 sequence (P11712 whole entry): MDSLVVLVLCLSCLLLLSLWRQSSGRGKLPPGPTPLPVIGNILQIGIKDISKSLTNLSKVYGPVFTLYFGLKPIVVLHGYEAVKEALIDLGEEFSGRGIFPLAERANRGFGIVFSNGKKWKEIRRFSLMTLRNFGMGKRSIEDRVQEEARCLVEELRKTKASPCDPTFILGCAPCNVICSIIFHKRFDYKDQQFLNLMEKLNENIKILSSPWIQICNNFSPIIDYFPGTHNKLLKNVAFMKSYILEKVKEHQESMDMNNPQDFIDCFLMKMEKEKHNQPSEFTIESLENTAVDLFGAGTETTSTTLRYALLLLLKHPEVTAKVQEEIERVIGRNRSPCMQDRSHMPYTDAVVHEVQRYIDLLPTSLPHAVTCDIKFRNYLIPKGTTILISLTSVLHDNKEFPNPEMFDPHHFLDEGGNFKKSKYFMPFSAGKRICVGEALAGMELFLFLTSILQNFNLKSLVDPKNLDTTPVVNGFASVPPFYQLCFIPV

Take `C#CCOc1ccc(CCNC(=O)C(OCC#C)c2ccc(Cl)cc2)cc1OC` (stereo not shown) [MDP, mandipropamid]: on CYP1A2, the pIC50 (as a rule, the negative decadic logarithm of the IC50, by convention in mol/L) was 4.54 and the “IC50 CYP1A2” value came out at 11.8 mg/L. On CYP2C19, the pIC50 was 6.08 and the “IC50 CYP2C19” value came to 0.340 mg/L. For the same molecule, on CYP2C9, the pIC50 was 5.93 and the “IC50 CYP2C9” value was determined as 0.488 mg/L. Also, on CYP2D6, the pIC50 was 4.74 and the “IC50 CYP2D6” value is recorded as 7.47 mg/L. Besides, on CYP3A4, the pIC50 was 5.88 and the “IC50 CYP3A4” value is 0.544 mg/L.
